PMC9947975, “Design, Synthesis, and Biological Evaluation Studies of Novel Naphthalene-Chalcone Hybrids As Antimicrobial, Anticandidal, Anticancer, and VEGFR-2 Inhibitors” (ACS Omega, 2023)
In brackets after ≈: the same amount, converted by molar mass. Several values for one entry are separate records, joined by “and”; a condition that tells them apart may be missing. Identical values can stand only once.

Tests used:
[1] = system: C. krusei (ATCC 6258); experiment: Anticandidal activity, MIC50 by resazurin fluorometric measurement; type: cell-based, Candida krusei
Description: (§1) Obtained compounds (2a–2j) were evaluated for anticandidal activity against Candida albicans (C. albicans) (ATCC 24433), Candida krusei (C. krusei) (ATCC 6258), and Candida parapsilopsis (C. parapsilopsis) (ATCC 22019). MIC50 values were determined via fluorometric measurements, using resazurin solution.[13] Voriconazole and fluconazole were used as a standard drug in the anticandidal activity test. […] In general, it is seen that the 2-methoxyethyl substituent increases the anticandidal activity.
(§2) The antimicrobial activity of obtained derivatives (2a–2j) was screened on six bacterial and three fungal strains according to the standard procedure of CLSI[20] as described in the previous study.[21] The antibacterial activities of the obtained compounds were screened against B. subtilis (ATCC 6051), E. coli (ATCC 25922), E. faecalis (ATCC 2942), P. aeruginosa (ATCC 27853), S. aureus (ATCC 29213), and S. epidermidis (ATCC 12228). The obtained compounds were evaluated for anticandidal activity against C. albicans (ATCC 24433), C. krusei (ATCC 6258), and C. parapsilopsis (ATCC 22019). For antibacterial activity, azithromycin was utilized as a reference drug, whereas voriconazole and fluconazole were used for anticandidal activity.

[2] = system: S. epidermidis (ATCC 12228); experiment: Antibacterial activity, MIC50 by resazurin fluorometric measurement; type: cell-based, Staphylococcus epidermidis
Description: (§3) Obtained compounds (2a–2j) were evaluated for antibacterial activity against Escherichia coli (E. coli) (ATCC 25922), Pseudomonas aeruginosa (P. aeruginosa) (ATCC 27853), […] (E. faecalis) (ATCC 2942), Bacillus subtilis (B. subtilis) (ATCC 6051), Staphylococcus aureus (S. aureus) (ATCC 29213), and Staphylococcus epidermidis (S. epidermidis) (ATCC 12228). MIC50 values were determined via fluorometric measurements, using resazurin solution.[13] Azithromycin was used as a standard drug in the antibacterial activity test.
as §2

[3] = system: C. parapsilopsis (ATCC 22019); experiment: Anticandidal activity, MIC50 by resazurin fluorometric measurement; type: cell-based, Candida parapsilopsis; details: Candida, ATCC22019; means of triplicate assays
Description: as §1, §2

[4] = system: C. albicans (ATCC 24433); experiment: as above; type: cell-based, Candida albicans
Description: as §1, §2

[5] = system: healthy mouse fibroblast cell (NIH3T3); experiment: MTT cytotoxicity test on healthy cells; type: cell-based; details: 24-h treatment, means of quartet assays ± SEM
Description: (§4) The MTT test was performed using 3 different cell lines for calculated IC50 values of obtained compounds. […] For this purpose, the cytotoxic effects of the compounds against the healthy mouse fibroblast cell (NIH3T3) were investigated.
(§5) The 3-(4,5-dimethylthiazol-2-yl)-2,5-diphenyltetrazolium salt reduction method, or MTT assay, is used to measure the metabolic activity of live cells. […] Doxorubicin is used as a therapeutic drug. MTT assays were carried out as previously explained.[19]

[6] = system: carcinogenic cell lines; experiment: Flow cytometric analysis of apoptosis and necrosis (Apoptosis, Necrosis and Healthy Cell Quantitation Kit Plus); type: cell-based; details: IC50 concentration, 24-h incubation
[7] = system: B. subtilis (ATCC 6051); experiment: Antibacterial activity, MIC50 by resazurin fluorometric measurement; type: cell-based; details: Bacillus subtilis, ATCC6051; means of triplicate assays
Description: as §3, §2

[8] = system: E. coli (ATCC 25922); experiment: as above; type: cell-based; details: Escherichia coli, ATCC25922; means of triplicate assays
Description: as §3, §2

[9] = system: P. aeruginosa (ATCC 27853); experiment: as above; type: cell-based; details: Pseudomonas aeruginosa, ATCC27853; means of triplicate assays
Description: as §3, §2

[10] = system: S. aureus (ATCC 29213); experiment: as above; type: cell-based, Staphylococcus aureus
Description: as §3, §2

[11] = system: E. faecalis (ATCC 2942); experiment: as above; type: cell-based, Enterococcus faecalis
Description: as §3, §2

[12] = molecular target: T1, VEGFR-2 enzyme (Homo sapiens, UniProt P35968); experiment: VEGFR-2 inhibition assay (VEGFR-2 Kinase Assay Kit); type: biochemical; details: serial 11 dilutions, 1000 μM–0.01 μM
T1 construct: purchased
Description: The VEGFR-2 Kinase Assay Kit (Available from ref ([15])) was used for the VEGFR-2 inhibition. The experiment was performed in vitro according to the kit procedure. Serial 11 dilutions of compound 2j were prepared at concentrations of 1000 μM–0.01 μM. The IC50 value for compound 2j was calculated using the kit procedure.
The VEGFR-2 Kinase Assay Kit (available from ref ([15])) was used for the VEGFR-2 inhibition. The experiment was performed in vitro according to the kit procedure.

[13] = system: A549 cell line; experiment: MTT cytotoxicity test; type: cell-based; details: for IC50: MTT, 24-h treatment, means of quartet assays ± SEM
Description: as §4, §5

[14] = system: HepG2 cell line; experiment: MTT cytotoxicity test; type: cell-based; details: Homo sapiens, 24-h treatment, means of quartet assays ± SEM
Description: as §4, §5

[15] = system: A549 cell line; experiment: Analysis of mitochondrial membrane potential (MMP) by flow cytometry, JC-1 dye; type: cell-based; details: A549, IC50 concentration, 24-h incubation
Description: After a 24-h incubation period, mitochondrial membrane potential was measured with JC-1 dye.
The BD Mitoscreen Mitochondrial Membrane Potential Detection JC-1 Kit (available from ref ([23])) was used for the MMP test. First, A549 cells were seeded in 25 mL flasks and incubated for 24 h in a 5% CO2 incubator. […] At the end of this period, cells were collected and centrifuged in accordance with the kit contents. After the upper part was removed, JC-1 dye was added and incubated at 37 °C for 10–15 min. At the end of the period, it was washed 2 times with washing solution and reading was done with the appropriate procedure using the CytoFLEX Flow Cytometer (Beckman Coulter Life Sciences, USA) and CytExpert for CytoFLEX Acquisition and Analysis Software Version 2.2.0.97.

[16] = system: carcinogenic cell lines; experiment: Flow cytometric analysis of apoptosis and necrosis (Apoptosis, Necrosis and Healthy Cell Quantitation Kit Plus); type: cell-based; details: IC50 concentration, 24-h incubation; remark: listed apart in the source
Description: The flow cytometer was used to calculate the percentages of apoptotic and necrotic cells in four different quadrants, which are denoted by the letters “UL, UR, LL, LR” (Upper Left, Upper Right, Lower Left, Lower Right). The four distinct quadrants in the diagram represent the following areas, respectively: Apoptotic or early apoptotic cells, LR: CF488A+/(EthD-III)-; necrotic or late apoptotic cells, […]: CF488A+/(EthD-III)+; intact cells, LL: CF488A/(EthD-III); and dead or necrotic cells, UR: CF488A+/(EthD-III)+. The IC50 concentration of each substance was used in administration.
Death pathway of the carcinogenic cell lines was detected by Apoptosis, Necrosis and Healthy Cell Quantitation Kit Plus (Cat: 30066, Biotium, Hayward, CA, USA)[22] as reported in the manufacturer’s instruction. The IC50 values for doxorubicin and compound 2j were applied. Cells were collected by centrifugation at 1200 rpm for 5 min following a 24-h incubation period. It was washed 2 times with PBS, centrifuged and turned into pellets. One ×10^6 cells/mL of annexin were suspended in V-FITC binding buffer. Ethidium iodide ([…]), Hoestch 1 mL, and annexin V-FITC ([…]) were added to stain cells and using the CytoFLEX Flow Cytometer (Beckman Coulter Life Sciences, USA) and CytExpert for CytoFLEX Acquisition and Analysis Software Version 2.2.0.97 instrument. Fluorescence measurements were made using a flow cytometer in accordance with the instrument procedure.

T1 sequence (P35968 20-1356): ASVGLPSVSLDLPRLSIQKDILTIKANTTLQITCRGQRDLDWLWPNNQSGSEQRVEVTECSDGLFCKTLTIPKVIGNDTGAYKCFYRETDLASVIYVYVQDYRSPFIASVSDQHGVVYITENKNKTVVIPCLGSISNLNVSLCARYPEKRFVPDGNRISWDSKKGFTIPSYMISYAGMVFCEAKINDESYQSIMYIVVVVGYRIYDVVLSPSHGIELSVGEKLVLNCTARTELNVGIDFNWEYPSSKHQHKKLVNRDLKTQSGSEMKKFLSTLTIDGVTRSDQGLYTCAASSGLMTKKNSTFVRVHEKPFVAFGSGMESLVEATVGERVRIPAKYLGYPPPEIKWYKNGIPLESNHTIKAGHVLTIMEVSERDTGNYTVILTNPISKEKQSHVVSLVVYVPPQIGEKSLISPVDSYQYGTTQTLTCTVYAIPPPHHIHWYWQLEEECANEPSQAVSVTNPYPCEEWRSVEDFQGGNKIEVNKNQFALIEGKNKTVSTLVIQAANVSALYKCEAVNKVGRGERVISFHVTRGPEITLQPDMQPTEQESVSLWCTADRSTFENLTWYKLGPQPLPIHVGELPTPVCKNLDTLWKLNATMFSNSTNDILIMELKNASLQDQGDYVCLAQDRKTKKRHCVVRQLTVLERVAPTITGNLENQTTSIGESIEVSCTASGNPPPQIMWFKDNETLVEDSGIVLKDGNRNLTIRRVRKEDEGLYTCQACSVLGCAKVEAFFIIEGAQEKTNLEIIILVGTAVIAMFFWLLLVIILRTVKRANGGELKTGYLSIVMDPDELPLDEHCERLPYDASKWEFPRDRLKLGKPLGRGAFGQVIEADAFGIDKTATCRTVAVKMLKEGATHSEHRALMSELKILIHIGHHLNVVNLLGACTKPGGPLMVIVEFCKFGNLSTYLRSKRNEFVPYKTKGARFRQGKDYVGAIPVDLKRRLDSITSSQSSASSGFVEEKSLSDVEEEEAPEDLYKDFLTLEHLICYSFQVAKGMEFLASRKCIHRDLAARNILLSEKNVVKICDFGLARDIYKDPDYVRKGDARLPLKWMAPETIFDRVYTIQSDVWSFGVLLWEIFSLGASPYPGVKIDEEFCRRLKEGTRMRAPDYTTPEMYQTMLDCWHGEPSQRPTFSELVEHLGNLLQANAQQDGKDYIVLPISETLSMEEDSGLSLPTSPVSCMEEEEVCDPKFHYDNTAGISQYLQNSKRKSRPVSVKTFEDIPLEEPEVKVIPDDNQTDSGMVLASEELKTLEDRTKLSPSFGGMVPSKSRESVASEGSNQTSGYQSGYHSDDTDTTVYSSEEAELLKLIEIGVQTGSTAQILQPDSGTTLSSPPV

- MIC50 ([1]; Pichia kudriavzevii, ATCC6258, means of triplicate assays): 15.6 µg/mL (≈ 39 µM)
- MIC50 C. krusei ([1]; means of triplicate assays): 15.6 µg/mL (≈ 38.9 µM)
- MIC50 ([2]; Staphylococcus epidermidis, ATCC12228, means of triplicate assays, read-out: MIC50 S. epidermis): 31.2 µg/mL (≈ 78 µM)
- MIC50 S. epidermis ([2]; means of triplicate assays): 31.3 µg/mL (≈ 78.1 µM)
- MIC50 [3]: > 100 µg/mL
- MIC50 ([4]; Candida albicans, ATCC24433, means of triplicate assays): 15.6 µg/mL (≈ 39 µM)
- MIC50 C. albicans ([4]; means of triplicate assays): 15.6 µg/mL (≈ 38.9 µM)
- MIC50 [7]: > 100 µg/mL
- MIC50 [8]: > 100 µg/mL
- MIC50 [9]: 62.5 µg/mL (≈ 156 µM)
- MIC50 ([10]; Staphylococcus aureus, ATCC29213, means of triplicate assays): 31.2 µg/mL (≈ 78 µM)
- MIC50 S. aureus ([10]; means of triplicate assays): 31.3 µg/mL (≈ 78.1 µM)
- MIC50 ([11]; Enterococcus faecalis, ATCC2942, means of triplicate assays): 15.6 µg/mL (≈ 38.9 µM)
- MIC50 E. faecalis ([11]; means of triplicate assays): 15.7 µg/mL (≈ 39.2 µM)
- IC50 [12]: 0.098 ± 0.005 µM
Structure (SMILES): COCCN1CCN(c2ccc(C(=O)C=Cc3ccc4ccccc4c3)cc2)CC1 [2j, 1-(4-(4-(2-Methoxyethyl)piperazin-1-yl)phenyl)-3-(naphthalen-2-yl)prop-2-en-1-one]
- IC50 [5]: 15.6 ± 0.75 µM
- late apoptosis (Q1-UR) [6]: 10.26% and 10.3%
- IC50 ([13]; Homo sapiens, A549, 24 h): < 10 µM
- IC50 [13]: 7.8 µM and 7.83 µM
- selectivity index (IC50 value vs healthy cell/IC50 value vs cancer cell) ([13]; NIH3T3 vs A549 cell line): 1.990
- IC50 [14]: 38.9 ± 1.34 µM
- mitochondrial membrane potential (P3) [15]: 58.870%
- early apoptosis (Q1-LR) [16]: 3.97%
- intact cells (Q1-LL) [16]: 67.71%
- necrosis (Q1-UL) [16]: 18.06% and 18.1%
- rate of apoptosis (early + late apoptosis) [16]: 14.230% and 14.2%
